Data set [1] concerns Staphylococcal enterotoxin B-induced systemic inflammation. Conditions: mouse, in vivo.
In data set [2] the test system is nuclear import of NF-κB, AP-1, NFAT, and STAT1 in Jurkat T cells. In kind it is cell-based, human.
Data set [3] concerns the target T1, importin α5/karyopherin α1 (/KPNA1/SRP1) (Homo sapiens, UniProt P52294).
T1 construct: SRP1/importin alpha 5 (karyopherin alpha1)/importin beta 1 heterodimer expressed in Jurkat T cells; endogenous in cells; host or cells: Jurkat T cells
The experiment in a line: Binding to the nuclear import adaptor. From the text:
Inflammatory liver injury mediated by macrophages (Kupffer cells) or T cells depends on the nuclear import of SRTFs. SRTFs regulate the genome response to proinflammatory and proapoptotic cues. The mechanism of action of cell-penetrating peptides SN50 and its cyclized analog cSN50 that inhibit the nuclear import of SRTFs is shown herein. SN50 binds to a nuclear import adaptor protein termed importin α5/karyopherin α1 (/KPNA1/SRP1) and inhibits its function as a cytoplasmic/nuclear shuttle for SRTFs. […] However, prior to the present disclosure, it was not known how EtOH influences the importin α5/karyopherin α1 (/KPNA1/SRP1)—mediated signaling to the nucleus and genome response in hepatocytes induced by LPS or Con A. Also identified was another putative nuclear import adapter, termed SARM, which appears to participate in LPS-induced liver injury. […] Example 2: Nuclear Import of Stress-Responsive Transcription Factors (SRTFs) Is Required for Inflammatory and Apoptotic Gene Expression.
It is well-recognized that signaling to the nucleus plays a key role in the response of T lymphocytes to immune and inflammatory stimuli. […]

Bridge positions count the residues as written; N and C are the ends. Peptide text beside a SMILES is read from it.

T1 sequence (P52294 whole entry): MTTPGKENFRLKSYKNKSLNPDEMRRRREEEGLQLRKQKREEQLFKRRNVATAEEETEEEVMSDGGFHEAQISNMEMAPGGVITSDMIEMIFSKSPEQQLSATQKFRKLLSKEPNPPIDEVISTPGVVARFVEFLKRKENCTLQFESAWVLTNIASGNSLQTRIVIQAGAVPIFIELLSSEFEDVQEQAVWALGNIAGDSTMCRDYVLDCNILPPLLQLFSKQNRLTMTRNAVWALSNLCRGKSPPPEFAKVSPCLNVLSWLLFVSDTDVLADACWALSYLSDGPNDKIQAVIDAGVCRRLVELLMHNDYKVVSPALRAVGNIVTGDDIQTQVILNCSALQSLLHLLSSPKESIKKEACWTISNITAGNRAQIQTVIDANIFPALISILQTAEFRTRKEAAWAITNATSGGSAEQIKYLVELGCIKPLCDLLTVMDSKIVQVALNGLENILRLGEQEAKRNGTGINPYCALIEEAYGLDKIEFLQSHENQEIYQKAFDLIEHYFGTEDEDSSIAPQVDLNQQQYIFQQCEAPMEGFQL
T1 sequence (Q14974 whole entry partner): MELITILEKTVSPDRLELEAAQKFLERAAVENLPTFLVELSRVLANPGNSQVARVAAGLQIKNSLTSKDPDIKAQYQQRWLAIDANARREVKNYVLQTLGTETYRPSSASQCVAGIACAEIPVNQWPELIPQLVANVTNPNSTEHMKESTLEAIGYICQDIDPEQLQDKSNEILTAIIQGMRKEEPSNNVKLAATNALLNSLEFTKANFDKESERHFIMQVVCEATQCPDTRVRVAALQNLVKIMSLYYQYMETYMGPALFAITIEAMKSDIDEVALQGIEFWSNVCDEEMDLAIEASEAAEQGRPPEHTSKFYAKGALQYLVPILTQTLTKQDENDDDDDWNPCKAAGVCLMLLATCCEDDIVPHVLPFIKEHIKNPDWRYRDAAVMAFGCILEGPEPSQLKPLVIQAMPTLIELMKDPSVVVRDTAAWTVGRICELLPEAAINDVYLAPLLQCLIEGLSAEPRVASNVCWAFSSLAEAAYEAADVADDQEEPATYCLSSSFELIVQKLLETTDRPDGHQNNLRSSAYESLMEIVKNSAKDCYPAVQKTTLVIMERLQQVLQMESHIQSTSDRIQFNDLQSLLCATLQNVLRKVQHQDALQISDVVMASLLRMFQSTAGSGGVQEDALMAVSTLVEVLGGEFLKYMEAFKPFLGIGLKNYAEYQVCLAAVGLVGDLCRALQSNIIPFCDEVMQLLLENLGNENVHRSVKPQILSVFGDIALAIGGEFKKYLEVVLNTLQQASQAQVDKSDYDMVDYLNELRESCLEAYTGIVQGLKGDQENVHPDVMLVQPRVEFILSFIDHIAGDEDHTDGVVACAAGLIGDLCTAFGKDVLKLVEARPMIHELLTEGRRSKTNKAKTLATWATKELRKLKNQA

Regarding `CSCC[C@@H]1NC(=O)[C@H](CC(C)C)NC(=O)[C@H](CCCCN)NC(=O)[C@H](CCC(N)=O)NC(=O)[C@H](CCCNC(=N)N)NC(=O)[C@H](CCCCN)NC(=O)[C@H](CCCNC(=N)N)NC(=O)[C@H](CCC(N)=O)NC(=O)[C@H](C(C)C)NC(=O)[C@H](Cc2ccc(O)cc2)NC(=O)[C@@H](NC(=O)[C@@H]2CCCN2C(=O)[C@H](C)NC(=O)[C@H](CC(C)C)NC(=O)[C@H](CC(C)C)NC(=O)[C@H](C)NC(=O)[C@H](CC(C)C)NC(=O)[C@H](CC(C)C)NC(=O)[C@@H](NC(=O)[C@H](C)NC(=O)[C@@H]2CCCN2C(=O)[C@H](CC(C)C)NC(=O)[C@H](CC(C)C)NC(=O)[C@H](C)NC(=O)[C@@H](NC(=O)[C@H](C)NC(=O)[C@H](C)N)C(C)C)C(C)C)CSSC[C@@H](C(=O)O)NC(=O)[C@@H]2CCCN2C1=O` [cSN50] (H-AAVALLPAVLLALLAPCYVQRKRQKLMPC-OH; disulfide 17-29; N-terminus and C-terminus assumed), in data set [1], the undesirable side effects entry is on record as “does not seem to cause undesirable side effects”.
As for “AAVALLPAVLLALLAPVQRKRQKLMP [SN50, SSHR of K-FGF linked to NLS of NF-κB1 p50]”, in data set [2], the “nuclear import of SRTFs” value is “prevents nuclear import of four SRTFs”. Further, the “binding to importin α5/karyopherin α1” value in data set [3] is “binds”.
